Reference: PubChem BioAssay (NCI)
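Values below derive from 48-hour exposures of cells grown in 96-well plates, with endpoints linearly interpolated between the two concentrations bracketing the appropriate inhibition level. GI50 marks 50% less growth. Definition used: TGI = concentration required for complete inhibition of growth.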

Legend:
Experiment in all cases: NCI anticancer screen, dose series, 48 h
MALME-3M melanoma = system: MALME-3M melanoma
RXF 393 renal = system: RXF 393 renal
U251 CNS = system: U251 CNS
DU-145 prostate = system: DU-145 prostate
SK-OV-3 ovarian = system: SK-OV-3 ovarian
CAKI-1 renal = system: CAKI-1 renal
PC-3 prostate = system: PC-3 prostate
SR leukemia = system: SR leukemia

SMILES	GI50 (MALME-3M melanoma) [µM]	TGI (MALME-3M melanoma) [µM]	GI50 (RXF 393 renal) [µM]	TGI (RXF 393 renal) [µM]	GI50 (U251 CNS) [µM]	TGI (U251 CNS) [µM]	GI50 (DU-145 prostate) [µM]	TGI (DU-145 prostate) [µM]	GI50 (SK-OV-3 ovarian) [µM]	TGI (SK-OV-3 ovarian) [µM]	GI50 (CAKI-1 renal) [µM]	TGI (CAKI-1 renal) [µM]	GI50 (PC-3 prostate) [µM]	TGI (PC-3 prostate) [µM]	GI50 (SR leukemia) [µM]	TGI (SR leukemia) [µM]
O=C(/C=C/c1ccccc1Cl)c1ccc(O)cc1	16.3	31.1	1.97	5.59	3.41	12.7	4.16	13.1	12.1	25.9	6.87	20.2	5.65	26.5	2.82	> 24.4
NC(Cc1cc(Br)c(O)c(Br)c1)C(=O)O (configuration not stated)		> 100		> 100		> 100		> 100		> 100		> 100		> 100		> 100
COc1cc(C2=Nc3c/c(=C\c4c(O)[nH]c5ccc(Cl)cc45)ccc3=N2)cc(OC)c1OC	1.79	3.71	2.78	7.38	1.79	3.91	2.34	5.19	16.2	32.5	5.5	27.8	2.94	14.3	1.94	5.05
S=C(Nc1ccc(-c2nc3ccccc3s2)cc1)Nc1ccccn1	28.6	73.9	33.1	> 74.5	27.9	> 100	28.5	> 100	59.7	> 100	17.3	45.7	23.6	> 71.7	26.6	57.4
N#CC(NC12CC3CC(CC(C3)C1)C2)c1ccccc1 (configuration not stated)		> 100		> 100		> 100		> 100		> 100		> 100		> 100		> 100
Cc1nc(NC(=O)COc2cccc(/C=C3\COc4ccccc4C3=O)c2)sc1C	1.79	4.11	1.78	3.48	1.54	2.9	2.1	4.09	8.97	21.3	1.5	3.41	1.76	4.05	0.872	> 100
C[C@@]12CCC[C@@](C)(C(=O)O)C1CC[C@]13C=C(CO)[C@](O)(CCC12)C3 (some centres not stated)	> 100	> 100	> 100	> 100	> 100	> 100	> 100	> 100	> 100	> 100	> 100	> 100	> 100	> 100	> 100	> 100
C[CH2][Sn]1([CH2]C)[O]C2C(O)OC(CO)C(O)C2[O]1 (configuration not stated)	14	30.2	27.6	> 100	17.9	36.9	86.8	> 100	> 100	> 100	31.1	> 100	> 100	> 100	13.3	39.6
